The source of these data is patent US20260223849A1, “FUNGICIDAL COMBINATION” (UPL MAURITIUS LIMITED, priority 2023, published 2026).

In this test the test system is Zymoseptoria tritici (Septoria tritici). In words: Efficacy against Zymoseptoria tritici (SEPTTR) on wheat, two applications (stages A and B). Type of test: in vivo. Conditions: prothioconazole 520 mL/ha (130 g A/ha), fluxapyroxad 1424 mL/ha (89 g A/ha). The method, then: The following formula was used to calculate the expected activity of mixtures containing active ingredients, A and B:
[formula] • where A=observed efficacy of active ingredient A at the same concentration as used in the mixture. • B=observed efficacy of active ingredient B at the same concentration as used in the mixture.
In the Colby method, the expected (or predicted) response of a combination of fungicides is calculated by taking the product of the observed response for each individual component of the combination when applied alone divided by 100 and subtracting this value from the sum of the observed response for each component when applied alone. An unexpected enhancement in efficacy of the combination is then determined by comparing the observed response of the combination to the expected (or predicted) response as calculated from the observed response of each individual component alone. If the observed response of the combination is greater than the expected (or predicted) response, or stated conversely, if the difference between the observed and expected response is greater than zero, then the combination is said to be synergistic or unexpectedly effective.
Efficacy of the combination of prothioconazole and fluxapyroxad was determined against Zymoseptoria tritici (Septoria tritici) in wheat crop. The actives prothioconazole and fluxapyroxad were tank mixed and applied as per the table below. Prothioconazole and fluxapyroxad were emulsifiable concentrate formulations with formulation concentrations of 250 g/L and 62.5 g/L, respectively. The applications were made twice at stages ‘A and ‘B’. Stage A was the time at which the first node was at least 1 cm above tillering node (Feekes 6.0=First node visible). Stage ‘B’ was the Flag leaf stage, wherein the flag leaf fully unrolled and ligule was visible (Feekes 9.0=Flag leaf). Applications were made at stage B which was 18 days after application A. The observations were made at 19 DA-A (19 days after application-A) as observed in table 1 (b) and at 23 DA-B (23 days after application B) as observed in Table 1 (c).

[1] abbreviates: 19 DA-A (19 days after application A).
Setting [2] is: 23 DA-B (23 days after application B).

As to `OC(Cc1ccccc1Cl)(Cn1[nH]cnc1=S)C1(Cl)CC1` (stereo not shown) [Prothioconazole, 2-[2-(1-chlorocyclopropyl)-3-(2-chlorophenyl)-2-hydroxypropyl]-1,2-dihydro-3H-1,2,4-triazole-3-thione], the “% Observed Control of Septoria tritici” value under setting [1] was determined as 23.7% and the “% Observed Control of Septoria tritici” value under setting [2] stood at 20.0%.

As to `Cn1cc(C(=O)Nc2ccccc2-c2cc(F)c(F)c(F)c2)c(C(F)F)n1` [Fluxapyroxad, 3-(difluoromethyl)-1-methyl-N-(3′,4′,5′-trifluorobiphenyl-2-yl) pyrazole-4-carboxamide], the “% Observed Control of Septoria tritici” value under setting [1] is recorded as 25.6% and the “% Observed Control of Septoria tritici” value under setting [2] stood at 37.8%.
